# According to patent publication US6949250B2, “Selective algaecides for control of cyanochloronta” (The United States of America as represented by the …, priority 2002, dated 2005):
# Legend:
# Assay type in all cases: in vivo
# [1] = tested on: 2-methylisoborneol; assay: DNA2-59-1 first pond efficacy study: MIB levels; settings: 0.3 and 1 μM
# Description: (§1) The method described by Schrader et al. (2000) was used to determine the potential for using the anthraquinone derivatives as selective algicides in catfish aquaculture ponds. All catfish ponds used in efficacy tests were maintained using commercial pond management practices and were located at the Thad Cochran Pond Facility, Mississippi State University, Stoneville, Miss. Anthraquinone analogs were dissolved in deionized water before application to water within the limnocorrals.
# Limnocorrals in which test compound was applied to the enclosed water were randomly selected, and control (no test compound applied) limnocorrals were included in each efficacy study. […]
# In the first study, application rates of 0.1 μM (37.7 μg/L), 0.3 μM ([…]), and 1.0 μM (377 μg/L) of DNA2-59-1 were tested using limnocorrals (three replicates per concentration) that were of the same type used for testing DNA1-19-1. […] Water samples were also analyzed to determine the persistence of DNA2-59-1 in the pond water, and this analysis was performed by using high-pressure liquid chromatography (HPLC) (method and results are described later).
# [2] = tested on: Raphidiopsis brookii; assay: DNA2-59-1 third pond efficacy study: Raphidiopsis brookii abundance; settings: 0.3 μM, one day after application
# Description: as §1
# (§2) Limnocorrals in which test compound was applied to the enclosed water were randomly selected, and control (no test compound applied) limnocorrals were included in each efficacy study. For each sampling, two water samples (250 mL) were obtained from within each limnocorral (approximately 6-8 cm below the water surface and from opposite sides of each limnocorral) and mixed together in a 500 mL sample bottle to provide a representative sample of the water contained within the limnocorral.
# (§3) For the third efficacy test with DNA2-59-1, twelve limnocorrals (2.44 m in diameter and 1.53 m high) were placed in a 4-ha earthen pond containing a bloom of O. perornata. […]
# [3] = tested on: Oscillatoria geminata; assay: DNA2-59-1 third pond efficacy study: Oscillatoria geminata abundance; settings: 0.3 μM, from two days through four days after application
# Description: as §1, §2, §3
smiles,measurement,setting,value
"CC(C)NCc1ccc2c(c1)C(=O)c1ccccc1C2=O [DNA2-59-1, 2-[methylamino-N-(1′-methylethyl)]-9,10-anthraquinone monophosphate]",decrease of MIB levels compared to controls and 0.1 μM (result in words),[1],to a greater degree and significantly more
same,Numbers of Raphidiopsis brookii (result in words),[2],significantly reduced
same,abundance of Oscillatoria geminate vs controls (result in words),[3],significantly lower than controls
